Results published in US7786141B2 (Vertex Pharmaceuticals Incorporated, priority 2004, dated 2010).

Experiments:
M1 muscarinic receptor = biological target: T1, M1 muscarinic receptor (Homo sapiens, UniProt P11229); test: Functional mobilization of intracellular calcium (FLIPR) in M1-CHO cells; type: cell-based; settings: M1 receptor, calcium mobilization; for Emax: read-out: M1 Efficacy
T1 construct: expressed in transfected cells; host or cells: CHO (M1-CHO)
T1 sequence (P11229 1-460): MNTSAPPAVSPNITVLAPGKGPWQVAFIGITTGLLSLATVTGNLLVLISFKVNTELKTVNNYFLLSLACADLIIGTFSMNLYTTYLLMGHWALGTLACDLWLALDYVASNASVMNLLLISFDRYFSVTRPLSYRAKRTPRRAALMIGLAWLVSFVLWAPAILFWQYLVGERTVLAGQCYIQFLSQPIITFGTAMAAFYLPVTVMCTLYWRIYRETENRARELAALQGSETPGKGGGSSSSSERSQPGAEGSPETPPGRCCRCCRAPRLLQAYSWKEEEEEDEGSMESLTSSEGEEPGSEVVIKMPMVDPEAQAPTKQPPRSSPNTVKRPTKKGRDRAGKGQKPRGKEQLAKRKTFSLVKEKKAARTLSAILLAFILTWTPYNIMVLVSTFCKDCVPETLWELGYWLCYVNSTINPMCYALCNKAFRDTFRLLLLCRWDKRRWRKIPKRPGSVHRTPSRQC
Experimental: (§1) Functional Mobilization of Intracellular Calcium to Determine Muscarinic Receptor Activity:
(§2) CHO cells expressing muscarinic receptors (M1 to M5) are grown as monolayers in tissue culture flasks at 37° C. in a humidified atmosphere containing 5% CO2 and passaged every 3-5 days. The growth media is Dulbecco's modified eagles medium (DMEM, Gibco Cat# 12430-054), containing 25 mM Hepes and supplemented with Fetal Bovine Serum (Hyclone, cat# SH30071.03), 0.1 mM of MEM non-essential amino acids (GIBCO, Cat# 11140-050), 1 mM MEM Sodium Pyruvate (GIBCO Cat# 11360-070) and 100 units/ml of Penicillin G and 100 μg/ml of Streptomycin (GIBCO Cat# 15140-122). The recombinant muscarinic receptor cell lines are grown under antibiotic pressure with media containing 25 μg/ml zeocin and 500 μg/ml G418 (M1-CHO), 4 μg/ml puromycin, 50 μg/ml zeocin and 2.5 μg/ml blasticidin (M2 and M4-CHO) or 50 μg/ml zeocin and 4 μg/ml puromycin (M3 and M5-CHO).
(§3) Cells are harvested at 80-90% confluence using Versene (GIBCO Cat# 15040-066), collected by centrifugation and seeded 18-24 hrs prior to running the calcium assay at a density of 5,000 cells/well in back-walled, clear-bottomed 384-well plates (BD Biocoat, poly-D-lysine, Cat#356663). The day of the experiment, the cells are washed with a plate washer (Bioteck Instruments, ELX 405) using bath 1 buffer (140-mM NaCl, 4.5-mM KCl, 2-mM CaCl2, 1-mM MgCl2, 10-mM Hepes-Na, 10-mM Glucose, pH 7.4, with NaOH) containing 1 mM Probenecid. Next, the calcium dye Fluo-3 (25 μl/well of Fluo-3 AM at 4 μM, Molecular Probes F-1241, in Bath 1 buffer containing 1 mM Probenecid) is added to the 25 μl of Bath 1 remaining in each well after the plate wash and the dye is loaded at 37° C. in the tissue culture incubator for 60-90 min. The fluorescent dye is removed using the plate washer with Bath 1 containing 1 mM Probenecid, leaving 25 μl/well of this solution after the wash. Alternatively, cells can be loaded with the calcium indicator from Molecular Devices (Calcium 3 Assay Reagents, Cat # R7181) adding 5 μl of a 5× solution dye in Bath 1 containing 1 mM Probenecid (10 ml per dye flask cat# R7182 to generate a solution 20×) to 20 μl of the same buffer. After loading for 60 min, the experiment can be run without having to remove the dye.
(§4) Compounds are prepared at a 2× fold concentration in a 96-well plate (round bottom, Costar Corning cat# 3656), by reconstituting the pre-spotted compounds in bath 1 containing 1 mM probenecid. The final concentration DMSO is 0.5%, and the amount of DMSO is normalized across the assay plate. To determine an agonist action of the compounds on muscarinic receptors, the reconstituted compounds are added (25 μl compound/well) to the cell assay plate (containing 25 μl/well) using the multi-channel robotic system of the FLIPR 3 Instrument (Molecular Devices, Sunnyvale, Calif.). To determine a functional inhibitory action of the compounds on muscarinic receptors, the reconstituted compounds are added (25 μl compound/well) to the assay plate and pre-incubated for 15 min prior to adding 25 μl of Carbachol at 3× the EC80 for each muscarinic subtype. Alternatively, the compounds can be co-applied simultaneously with the agonist. In both assay modes, the fluorescence is recorded for 60 sec (excitation wavelength is […] and emission wavelength 540 nm) using the FLIPR 3 instrument.
(§5) The potency, efficacy and selectivity of the muscarinic compounds were evaluated by screening the compound activity across the whole family (M1 to M5 cells). Compounds were also screened for activity on other proteins such as other GPCRs and ion channels to determine selectivity on M4 receptors.

M4 muscarinic receptor = biological target: T2, M4 muscarinic receptor (Homo sapiens, UniProt P08173); test: Functional mobilization of intracellular calcium (FLIPR) in M4-CHO cells; type: cell-based; settings: M4 receptor, calcium mobilization; for Emax: read-out: M4 Efficacy
T2 construct: expressed in transfected cells; host or cells: CHO (M4-CHO)
T2 sequence (P08173 1-479): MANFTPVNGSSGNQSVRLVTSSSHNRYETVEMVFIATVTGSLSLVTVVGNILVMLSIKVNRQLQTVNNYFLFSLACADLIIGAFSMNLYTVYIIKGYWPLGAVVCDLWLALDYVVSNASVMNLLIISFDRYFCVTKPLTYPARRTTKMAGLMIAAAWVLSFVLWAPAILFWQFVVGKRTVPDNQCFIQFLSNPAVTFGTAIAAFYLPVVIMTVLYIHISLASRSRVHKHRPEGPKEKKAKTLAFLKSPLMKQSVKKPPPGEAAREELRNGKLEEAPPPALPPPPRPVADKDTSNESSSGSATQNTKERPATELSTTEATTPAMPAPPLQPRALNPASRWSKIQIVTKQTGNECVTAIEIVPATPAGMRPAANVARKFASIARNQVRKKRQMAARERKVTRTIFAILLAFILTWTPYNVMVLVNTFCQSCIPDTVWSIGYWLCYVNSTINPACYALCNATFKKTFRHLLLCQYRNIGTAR
Experimental: as §1, §2, §3, §4, §5

| Structure (SMILES) | M1 Activity (M1 muscarinic receptor) | Emax (M1 muscarinic receptor) [%] | M4 Activity (M4 muscarinic receptor) | Emax (M4 muscarinic receptor) [%] |
| --- | --- | --- | --- | --- |
| Clc1ccc2c(c1)C1(CCN([C@H]3C[C@@H]4CC[C@@H]3C4)CC1)CO2 [compound 1] | xx (activity was measured to be between 0.1 μM and 1.0 μM) | 65 to 85 | xx (activity was measured to be between 0.1 μM and 1.0 μM) | > 85 |
| CC(=O)NC1CC2(CCN(C3CCCCC3)CC2)c2ccccc21 (centres unmarked) [compound 2] | x (activity was measured to be greater than 1.0 μM) | < 65 | x (activity was measured to be greater than 1.0 μM) | < 65 |
| Cc1ccc2c(c1)C1(CCN(CC3CC4C=CC3C4)CC1)CN2 (centres unmarked) [compound 3] | xxx (activity was measured to be less than 0.1 μM) | 65 to 85 | xx (activity was measured to be between 0.1 μM and 1.0 μM) | 65 to 85 |
| CC(=O)N[C@H]1CC2(CCN(C3C4CC5CC(C4)CC3C5)CC2)c2ccccc21 (some centres unmarked) [compound 4] | xxx (activity was measured to be less than 0.1 μM) | < 65 | x (activity was measured to be greater than 1.0 μM) | < 65 |
| Clc1ccc2c(c1)C1(CCN(C3CCCCC3)CC1)CO2 [compound 5] | xxx (activity was measured to be less than 0.1 μM) | 65 to 85 | xxx (activity was measured to be less than 0.1 μM) | > 85 |
| CCOC(=O)N1CCC(N2CCC3(CC2)CN(C(C)=O)c2ccc(-c4cccc(C)c4)cc23)CC1 [compound 6] | xxx (activity was measured to be less than 0.1 μM) | 65 to 85 | xx (activity was measured to be between 0.1 μM and 1.0 μM) | 65 to 85 |
| O=C1Nc2ccccc2C12CCN(CC1CC3C=CC1C3)CC2 (centres unmarked) [compound 7] | xxx (activity was measured to be less than 0.1 μM) | 65 to 85 | xx (activity was measured to be between 0.1 μM and 1.0 μM) | > 85 |
| CC(=O)NC1CC2(CCN(C3CC4CCC(C4)C3)CC2)c2ccccc21 (centres unmarked) [compound 8] | xx (activity was measured to be between 0.1 μM and 1.0 μM) | < 65 | xx (activity was measured to be between 0.1 μM and 1.0 μM) | 65 to 85 |
| CCOC(=O)N1C2CCC1CC(N1CCC3(CC1)CN(C(C)=O)c1ccc(C)cc13)C2 (centres unmarked) [compound 9] | xxx (activity was measured to be less than 0.1 μM) | 65 to 85 | x (activity was measured to be greater than 1.0 μM) | 65 to 85 |
| CCOC(=O)N1CCC(N2CCC3(CC2)CN(C(C)=O)c2ccc(-c4ccc(NC(C)=O)cc4)cc23)CC1 [compound 10] | xx (activity was measured to be between 0.1 μM and 1.0 μM) | 65 to 85 | xx (activity was measured to be between 0.1 μM and 1.0 μM) | 65 to 85 |
| C=Cc1ccc2c(c1)C1(CCN(C3CCN(C(=O)OCC)CC3)CC1)CN2C(C)=O [compound 11] | x (activity was measured to be greater than 1.0 μM) | < 65 | x (activity was measured to be greater than 1.0 μM) | < 65 |
| CCC(=O)CCN1CC2(CCN(C[C@@H]3C[C@H]4C=C[C@H]3C4)CC2)c2cc(F)ccc21 [compound 12] | xxx (activity was measured to be less than 0.1 μM) | < 65 | xx (activity was measured to be between 0.1 μM and 1.0 μM) | < 65 |
| Fc1ccc2c(c1)C1(CCN(CC3CCC4CCC3C4)CC1)CN2 (centres unmarked) [compound 13] | xx (activity was measured to be between 0.1 μM and 1.0 μM) | 65 to 85 | x (activity was measured to be greater than 1.0 μM) | < 65 |
| CC(=O)N1CC2(CCN(CC3CCN(C(=O)O[C@@H]4CCOC4)CC3)CC2)c2cc(F)ccc21 [compound 14] | xxx (activity was measured to be less than 0.1 μM) | 65 to 85 | xxx (activity was measured to be less than 0.1 μM) | > 85 |
| CCCC1CCC(N2CCC3(CC2)C[C@H](NC(C)=O)c2ccccc23)CC1 (some centres unmarked) [compound 15] | xxx (activity was measured to be less than 0.1 μM) | 65 to 85 | xx (activity was measured to be between 0.1 μM and 1.0 μM) | > 85 |
| CS(=O)(=O)N1CC2(CCN(C3CC4CCC(C3)N4C(=O)O[C@@H]3CCOC3)CC2)c2cc(F)ccc21 (some centres unmarked) [compound 16] | xxx (activity was measured to be less than 0.1 μM) | 65 to 85 | xxx (activity was measured to be less than 0.1 μM) | 65 to 85 |
| CCOC(=O)N1CCC(N2CCC3(CC2)CN(C(=O)C2CCCC2)c2ccc(F)cc23)CC1 [compound 17] | xx (activity was measured to be between 0.1 μM and 1.0 μM) | < 65 | xx (activity was measured to be between 0.1 μM and 1.0 μM) | 65 to 85 |
| c1ccc2c(c1)CCC21CCN(CC2CCOCC2)CC1 [compound 18] | xxx (activity was measured to be less than 0.1 μM) | < 65 | xx (activity was measured to be between 0.1 μM and 1.0 μM) | > 85 |
| CCOC(=O)N1CCC(N2CCC3(CC2)CNc2ccc(Cl)cc23)CC1 [compound 19] | xxx (activity was measured to be less than 0.1 μM) | 65 to 85 | xx (activity was measured to be between 0.1 μM and 1.0 μM) | 65 to 85 |
| CC1(C)C(=O)c2ccccc2C12CCN(C[C@H]1C[C@@H]3C=C[C@@H]1C3)CC2 [compound 20] | x (activity was measured to be greater than 1.0 μM) | < 65 | xx (activity was measured to be between 0.1 μM and 1.0 μM) | < 65 |
